In ChEMBL document CHEMBL4196010, “New hydrazides derivatives of isoniazid against Mycobacterium tuberculosis: Higher potency and lower hepatocytotoxicity” (Eur J Med Chem, 2018) one finds MIC data, which are given here for 8 compounds.

In brackets after ≈: the same amount, converted by molar mass.

What all share (assay type): functional
In test [1] the test system is Mycobacterium tuberculosis. In words: Antitubercular activity against wild-type isoniazid-resistant Mycobacterium tuberculosis harboring katG mutant after 5 days by microplate alamar blue assay.
For test [2], the system named is Mycobacterium tuberculosis. The test is described as follows: Antitubercular activity against Mycobacterium tuberculosis SR 2571/0215 harboring katG mutant after 5 days by microplate alamar blue assay.
Test [3] relates to Mycobacterium tuberculosis. The test is described as follows: Antitubercular activity against isoniazid and rifampicin-resistant Mycobacterium tuberculosis T113/09 harboring katG and rpoB mutant after 5 days by microplate alamar blue assay.

Consider `CC(=O)Nc1ccc(Cl)cc1C(F)(F)C(=O)NNC(=O)c1ccncc1`, for which the MIC in test [1] is 136.6 µM (≈ 52.3 µg/mL).

Take `CC(=O)Nc1ccccc1C(=O)C(=O)NNC(=O)c1ccncc1`: the minimum inhibitory concentration (MIC) came out at 19.2 µM (≈ 6.27 µg/mL) in test [1], 38.3 µM (≈ 12.5 µg/mL) in test [2] and 38.3 µM (≈ 12.5 µg/mL) in test [3].

Take `CC(=O)Nc1ccccc1C(F)(F)C(=O)NNC(=O)c1ccncc1`: the MIC in test [1] is 143.7 µM (≈ 50.1 µg/mL); in test [2], 287.4 µM (≈ 100 µg/mL); in test [3] it was 287.4 µM (≈ 100 µg/mL).

With `CC(=O)Nc1ccc(F)cc1C(F)(F)C(=O)NNC(=O)c1ccncc1`, the MIC in test [1] was determined as 130.9 µM (≈ 47.9 µg/mL).

As to `O=C(CCl)Nc1ccccc1C(=O)C(=O)NNC(=O)c1ccncc1`, the MIC stood at 69.4 µM (≈ 25 µg/mL) in test [2] and 34.7 µM (≈ 12.5 µg/mL) in test [3].

For the compound `CC(=O)Nc1ccc(C)cc1C(F)(F)C(=O)NNC(=O)c1ccncc1`, the MIC in test [1] is 138.1 µM (≈ 50 µg/mL); in test [2], above 276.2 µM; in test [3], 276.2 µM (≈ 100 µg/mL).

In the case of `CC(=O)Nc1ccc(C)cc1C(=O)C(=O)NNC(=O)c1ccncc1`, the minimum inhibitory concentration (MIC) in test [2] and in test [3] was 36.7 µM (≈ 12.5 µg/mL) throughout.

For `NNC(=O)c1ccncc1` [ISONIAZID], the MIC in test [1] was above 80 µM; in test [2], 116.8 µM (≈ 16 µg/mL); in test [3], 58.4 µM (≈ 8.01 µg/mL).
